Test results reported in patent publication US20260199323A1, “LIGAND COMPOUNDS FOR E3 UBIQUITIN LIGASE, PROTEIN DEGRADERS DEVELOPED ON BASIS OF LIGAND COMPOUNDS, AND USES THEREOF” (GLUETACS THERAPEUTICS (SHANGHAI) CO., LTD., priority 2021, published 2026).

Experiments:
Daudi = experiment: CCK-8 tumor cell proliferation, Daudi; design: species or system Human; details: Table 13, designed based on BCR-ABL inhibitors; 96 h
Protocol: (§1) The tumor cells used herein were cultured in a cell culture medium listed in table 4 at 37° C. in an incubator with 5% CO2. Prior to experimentation, all cells used were correctly identified by STR profiling, and tested negative for mycoplasma through routine screenings.
(§2) IC50 values of the compounds of the present disclosure (including the compounds in Tables 1 and 3, and compounds of examples) were measured using the Meilun Cell Counting Kit-8 kit from Dalian Meilun Biotech Co., Ltd. Assay details are as follows: tumor cells were seeded in a 96-well plate at a density listed in Table 5. After 24 h, 100 μL of the inoculated cells were treated with 0.5 μL of the compounds of the present disclosure (including the compounds in Tables 1 and 3, and compounds of examples) at 10 different successively decreasing concentrations (starting at the highest concentration of 10 μM; 5-fold serial dilutions). After the cells were treated with the compounds of the present disclosure for a period of time, the cell viability detection reagent was added to the culture medium for cell viability assessment according to the instructions provided with the CCK-8 kit. […] The growth inhibition of the compounds of the present disclosure on cells was plotted by Prism Graphpad software, and the IC50 values of the compounds of the present disclosure were calculated therefrom.

NCI-H358 = experiment: CCK-8 tumor cell proliferation, NCI-H358; design: species or system Human; details: Table 11, designed based on EGFR inhibitors; 96 h
Protocol: The tumor cells used herein were cultured in a cell culture medium listed in table 4 at 37° C. in an incubator with 5% CO2.
as §2, with “After” for “IC50 values of the compounds of the present disclosure (including the compounds in Tables 1 and 3, and compounds of examples) were measured using the Meilun Cell Counting Kit-8 kit from Dalian Meilun Biotech Co., Ltd. Assay details are as follows: tumor cells were seeded in a 96-well plate at a density listed in Table 5. After”

PC-9 = experiment: CCK-8 tumor cell proliferation, PC-9; format: cell-based, Human; details: Table 11, designed based on EGFR inhibitors; 96 h
HCC827 = experiment: CCK-8 tumor cell proliferation, HCC827; format: cell-based, Human; details: Table 11, designed based on EGFR inhibitors; 96 h
Mino = experiment: CCK-8 tumor cell proliferation, Mino; format: cell-based, Human; details: 72 h
Procedure, shortened: (§3)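 Authenticated cells, kept at 37 °C and 5% CO2, were given compound a day after plating; doses spanned 10 levels in 5-fold decrements from 10 μM. IC50 values come from CCK-8 viability readings.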

Kasumi-1 = experiment: CCK-8 tumor cell proliferation, Kasumi-1; format: cell-based, Human; details: 72 h
Procedure, shortened: as §3

PC-3 = experiment: CCK-8 tumor cell proliferation, PC-3; format: cell-based, Human; details: Table 16, designed based on BET inhibitors; 96 h
Protocol: as §1, §2

CCRF-CEM = experiment: CCK-8 tumor cell proliferation, CCRF-CEM; format: cell-based, Human; design: IC50 for inhibiting the proliferation of tumor cells, CCRF-CEM: scale not given here; details: 96 h
Procedure, shortened: as §3

SU-DHL-6 = experiment: CCK-8 tumor cell proliferation, SU-DHL-6; format: cell-based, Human; details: Table 14, designed based on CDK4/6 inhibitors; 72 h
Protocol: as §1, §2

SK-OV-3 = experiment: CCK-8 tumor cell proliferation, SK-OV-3; details: Table 14, designed based on CDK4/6 inhibitors
Protocol: as §2

HGC-27 = experiment: CCK-8 tumor cell proliferation, HGC-27; format: cell-based, Human; details: Table 14, designed based on CDK4/6 inhibitors; 96 h
Protocol: as §1, §2

SR = experiment: CCK-8 tumor cell proliferation, SR; format: cell-based, Human; details: Table 14, designed based on CDK4/6 inhibitors; 72 h
Procedure, shortened: as §3

[1] = Table 16, designed based on BET inhibitors
[2] = Table 13, designed based on BCR-ABL inhibitors

Row | IC50 for inhibiting the proliferation of tumor cells, NCI-H358 (NCI-H358) | IC50 for inhibiting the proliferation of tumor cells, SU-DHL-6 (SU-DHL-6) | IC50 for inhibiting the proliferation of tumor cells, SK-OV-3 (SK-OV-3) | IC50 for inhibiting the proliferation of tumor cells, HGC-27 (HGC-27) | IC50 for inhibiting the proliferation of tumor cells, SR (SR) | SMILES | further results
1 |  | A+ | A+ | A+ | A+ | Cc1nc2c(F)cc(-c3nc(Nc4ccc(N5CCC(N6CCN(Cc7ccc8c(c7F)CN(C7CCC(=O)NC7=O)C8=O)CC6)CC5)cn4)ncc3F)cc2n1C(C)C (centres unmarked) [GT-03900, 3-(4-fluoro-5-((4-(1-(6-((5-fluoro-4-(4-fluoro-1-isopropyl-2-methyl-1H-benzo[d]imidazol-6-yl)pyrimidin-2-yl)amino)pyridin-3-yl)piperidin-4-yl)piperazin-1-yl)methyl)-1-oxoisoindolin-2-yl)piperidine-2,6-dione] | 
2 |  | A+ | A+ | A+ | A+ | Cc1nc2c(F)cc(-c3nc(Nc4ccc(N5CCC(N6CCN(Cc7cc8c(cc7F)C(=O)N(C7CCC(=O)NC7=O)C8)CC6)CC5)cn4)ncc3F)cc2n1C(C)C (centres unmarked) [GT-03901, 3-(6-fluoro-5-((4-(1-(6-((5-fluoro-4-(4-fluoro-1-isopropyl-2-methyl-1H-benzo[d]imidazol-6-yl)pyrimidin-2-yl)amino)pyridin-3-yl)piperidin-4-yl)piperazin-1-yl)methyl)-1-oxoisoindolin-2-yl)piperidine-2,6-dione] | 
3 |  | A+ | A+ | A+ | A+ | Cc1nc2c(F)cc(-c3nc(Nc4ccc(N5CCC(N6CCN(Cc7cc(F)c8c(c7)CN(C7CCC(=O)NC7=O)C8=O)CC6)CC5)cn4)ncc3F)cc2n1C(C)C (centres unmarked) [GT-03902, 3-(7-fluoro-5-((4-(1-(6-((5-fluoro-4-(4-fluoro-1-isopropyl-2-methyl-1H-benzo[d]imidazol-6-yl)pyrimidin-2-yl)amino)pyridin-3-yl)piperidin-4-yl)piperazin-1-yl)methyl)-1-oxoisoindolin-2-yl)piperidine-2,6-dione] | 
4 |  | A+ | A+ | A+ | A+ | Cc1nc2c(F)cc(-c3nc(Nc4ccc(N5CCC(N6CCN(Cc7cccc8c7CN(C7CCC(=O)NC7=O)C8=O)CC6)CC5)cn4)ncc3F)cc2n1C(C)C (centres unmarked) [GT-03903, 3-(4-((4-(1-(6-((5-fluoro-4-(4-fluoro-1-isopropyl-2-methyl-1H-benzo[d]imidazol-6-yl)pyrimidin-2-yl)amino)pyridin-3-yl)piperidin-4-yl)piperazin-1-yl)methyl)-1-oxoisoindolin-2-yl)piperidine-2,6-dione] | IC50 for inhibiting the proliferation of tumor cells, CCRF-CEM (CCRF-CEM; Table 14, designed based on CDK4/6 inhibitors): A+

More lines, now with the values behind:

Row | SMILES | IC50 for inhibiting the proliferation of tumor cells, NCI-H358 (NCI-H358) | IC50 for inhibiting the proliferation of tumor cells, SU-DHL-6 (SU-DHL-6) | IC50 for inhibiting the proliferation of tumor cells, SK-OV-3 (SK-OV-3) | IC50 for inhibiting the proliferation of tumor cells, HGC-27 (HGC-27) | IC50 for inhibiting the proliferation of tumor cells, SR (SR) | further results
5 | Cc1ccc(NC(=O)c2ccc(CN3CCN(Cc4ccc5c(c4)CN(C4CCC(=O)NC4=O)C5=O)CC3)cc2)cc1Nc1nccc(-c2cccnc2)n1 (centres unmarked) [GT-02969, 4-((4-((2-(2,6-dioxopiperidin-3-yl)-1-oxoisoindolin-5-yl)methyl)piperazin-1-yl)methyl)-N-(4-methyl-3-((4-(pyridin-3-yl)pyrimidin-2-yl)amino)phenyl)benzamide] |  |  |  |  |  | IC50 for inhibiting the proliferation of tumor cells, Daudi (Daudi): A+
6 | COc1cc2ncnc(Nc3ccc(F)c(Cl)c3)c2cc1NC(=O)/C=C/CN1CCN(Cc2ccc3c(c2)CN(C2CCC(=O)NC2=O)C3=O)CC1 (centres unmarked) [GT-03265, (E)-N-(4-((3-chloro-4-fluorophenyl)amino)-7-methoxyquinazolin-6-yl)-4-(4-((2-(2,6-dioxopiperidin-3-yl)-1-oxoisoindolin-5-yl)methyl)piperazin-1-yl)but-2-enamide] | A+ |  |  |  |  | IC50 for inhibiting the proliferation of tumor cells, PC-9 (PC-9): A+; IC50 for inhibiting the proliferation of tumor cells, HCC827 (HCC827): A+
7 | Cc1sc2c(c1C)C(c1ccc(Cl)cc1)=N[C@@H](CC(=O)NCCN1CCN(Cc3ccc4c(c3)CN(C3CCC(=O)NC3=O)C4=O)CC1)c1nnc(C)n1-2 (stereo partly drawn) [GT-03296, 2-((S)-4-(4-chlorophenyl)-2,3,9-trimethyl-6H-thieno[3,2-f][1,2,4]triazolo[4,3-a][1,4]diazepin-6-yl)-N-(2-(4-((2-(2,6-dioxopiperidin-3-yl)-1-oxoisoindolin-5-yl)methyl)piperazin-1-yl)ethyl)acetamide] |  |  |  |  |  | IC50 for inhibiting the proliferation of tumor cells, Mino (Mino; [1]): A+; IC50 for inhibiting the proliferation of tumor cells, Kasumi-1 (Kasumi-1; [1]): A+; IC50 for inhibiting the proliferation of tumor cells, PC-3 (PC-3): A+; IC50 for inhibiting the proliferation of tumor cells, CCRF-CEM (CCRF-CEM; [1]): A+
8 | COc1cc2ncnc(Nc3ccc(Cl)c(Cl)c3F)c2cc1OCc1ccc2c(c1)CN(C1CCC(=O)NC1=O)C2=O (centres unmarked) [GT-03354, 3-(5-(((4-((3,4-dichloro-2-fluorophenyl)amino)-7-methoxyquinazolin-6-yl)oxy)methyl)-1-oxoisoindolin-2-yl)piperidine-2,6-dione] | A+ |  |  |  |  | 
9 | Cc1ccc(NC(=O)c2ccc(CNCc3ccc4c(c3)CN(C3CCC(=O)NC3=O)C4=O)cc2)cc1Nc1nccc(-c2cccnc2)n1 (centres unmarked) [GT-03377, 4-((((2-(2,6-dioxopiperidin-3-yl)-1-oxoisoindolin-5-yl)methyl)amino)methyl)-N-(4-methyl-3-((4-(pyridin-3-yl)pyrimidin-2-yl)amino)phenyl)benzamide] |  |  |  |  |  | IC50 for inhibiting the proliferation of tumor cells, Mino (Mino; [2]): A+; IC50 for inhibiting the proliferation of tumor cells, Kasumi-1 (Kasumi-1; [2]): A+; IC50 for inhibiting the proliferation of tumor cells, Daudi (Daudi): A+
10 | C=CC(=O)Nc1cc2c(Nc3ccc(F)c(Cl)c3)ncnc2cc1OCCCN1CCN(Cc2ccc3c(c2)CN(C2CCC(=O)NC2=O)C3=O)CC1 (centres unmarked) [GT-03411, N-(4-((3-chloro-4-fluorophenyl)amino)-7-(3-(4-((2-(2,6-dioxopiperidin-3-yl)-1-oxoisoindolin-5-yl)methyl)piperazin-1-yl)propoxy)quinazolin-6-yl)acrylamide] | A+ |  |  |  |  | IC50 for inhibiting the proliferation of tumor cells, PC-9 (PC-9): A+
11 | COc1cc2ncnc(Nc3ccc(Cl)c(Cl)c3F)c2cc1OC1CCN(Cc2ccc3c(c2)CN(C2CCC(=O)NC2=O)C3=O)CC1 (centres unmarked) [GT-03412, 3-(5-((4-((4-((3,4-dichloro-2-fluorophenyl)amino)-7-methoxyquinazolin-6-yl)oxy)piperidin-1-yl)methyl)-1-oxoisoindolin-2-yl)piperidine-2,6-dione] | A+ |  |  |  |  | IC50 for inhibiting the proliferation of tumor cells, PC-9 (PC-9): A+
12 | Cc1nc(Nc2ncc(C(=O)Nc3c(C)cccc3Cl)s2)cc(N2CCC(N(C)Cc3ccc4c(c3)CN(C3CCC(=O)NC3=O)C4=O)CC2)n1 (centres unmarked) [GT-03545, N-(2-chloro-6-methylphenyl)-2-((6-(4-(((2-(2,6-dioxopiperidin-3-yl)-1-oxoisoindolin-5-yl)methyl)(methyl)amino)piperidin-1-yl)-2-methylpyrimidin-4-yl)amino)thiazole-5-carboxamide] |  |  |  |  |  | IC50 for inhibiting the proliferation of tumor cells, Mino (Mino; [2]): A+; IC50 for inhibiting the proliferation of tumor cells, Daudi (Daudi): A+
13 | COc1cc(OC)c2c(=O)[nH]c(-c3ccc(N4CCC(N5CCN(Cc6ccc7c(c6)CN(C6CCC(=O)NC6=O)C7=O)CC5)CC4)cc3)nc2c1 (centres unmarked) [GT-03708, 3-(5-((4-(1-(4-(5,7-dimethoxy-4-oxo-3,4-dihydroquinazolin-2-yl)phenyl)piperidin-4-yl)piperazin-1-yl)methyl)-1-oxoisoindolin-2-yl)piperidine-2,6-dione] |  |  |  |  |  | IC50 for inhibiting the proliferation of tumor cells, Mino (Mino; [1]): A+; IC50 for inhibiting the proliferation of tumor cells, PC-3 (PC-3): A+; IC50 for inhibiting the proliferation of tumor cells, CCRF-CEM (CCRF-CEM; [1]): A+
